Measured values reported in US20160009693A1, “HERBICIDAL COMPOUNDS” (SYNGENTA LIMITED, priority 2013, published 2016).

How the values were obtained:
Type in all cases: in vivo
Settings in all cases: applied at 1000 g/h, evaluated after 13 days
[1] = tested on: Amaranthus retoflexus (AMARE); assay: Herbicidal glasshouse test, pre-emergence, AMARE
Outline: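 Amaranthus retoflexus seeds were sown in pots of standard soil and kept one day in a glasshouse at 24/16° C. (day/night), 14 hours light and 65% humidity. They were then sprayed pre-emergence with the active ingredient in acetone/water (50:50) containing 0.5% Tween 20. Plants grew under the same conditions, watered twice daily, and percentage damage was scored after 13 days.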

[2] = tested on: Echinochloa crus-galli (ECHCG); assay: Herbicidal glasshouse test, post-emergence, ECHCG
Outline: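 Echinochloa crus-galli (ECHCG) seeds were sown in standard soil in pots and grown for 8 days in a glasshouse at 24/16° C. day/night, 14 hours light and 65% humidity. The young plants were then sprayed post-emergence with the active ingredient in acetone / water (50:50) containing 0.5% Tween 20. Damage was scored after 13 days.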

[3] = tested on: Amaranthus retoflexus (AMARE); assay: Herbicidal glasshouse test, post-emergence, AMARE
Outline: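 Amaranthus retoflexus (AMARE) seeds were sown in pots of standard soil and grown in a glasshouse at 24/16° C. day/night, 14 hours light and 65% humidity for 8 days. The plants were then sprayed post-emergence with an aqueous solution of the active ingredient in acetone/water (50:50) with 0.5% Tween 20. Damage was scored after 13 days.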

Setaria faberi (SETFA) [4] = assay: Herbicidal glasshouse test, pre-emergence, SETFA
[5] = tested on: Alopecurus myosuroides (ALOMY); assay: Herbicidal glasshouse test, pre-emergence, ALOMY
Setaria faberi (SETFA) [6] = assay: Herbicidal glasshouse test, post-emergence, SETFA
Outline: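 Setaria faberi seeds were sown in standard soil in pots and grown for 8 days in a glasshouse at 24/16° C. day/night, 14 hours light and 65% humidity. The seedlings were then sprayed post-emergence with the active ingredient in acetone/water (50:50) containing 0.5% Tween 20. Afterwards they were kept under the same conditions, watered twice daily, and scored for percentage damage on a five point scale.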

[7] = tested on: Alopecurus myosuroides (ALOMY); assay: Herbicidal glasshouse test, post-emergence, ALOMY
[8] = tested on: Ipomoea hederacea (IPOHE); assay: Herbicidal glasshouse test, pre-emergence, IPOHE
[9] = tested on: Echinochloa crus-galli (ECHCG); assay: Herbicidal glasshouse test, pre-emergence, ECHCG
Outline: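 Echinochloa crus-galli seeds were sown in standard soil in pots and grown for one day in a glasshouse at 24/16° C. day/night, 14 hours light and 65% humidity. Pre-emergence spraying used an aqueous solution of the active ingredient in acetone/water (50:50) with 0.5% Tween 20. Damage was scored after 13 days on a five point scale.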

Solanum nigrum (SOLNI) [10] = assay: Herbicidal glasshouse test, pre-emergence, SOLNI
Outline: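 Seeds of Solanum nigrum were sown in pots of standard soil and kept one day in a glasshouse at 24/16° C. day/night, 14 hours light and 65% humidity. For the pre-emergence treatment they were then sprayed with an aqueous solution of the active ingredient formulated in acetone/water (50:50) containing 0.5% Tween 20. Plant damage was rated after 13 days.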

[11] = tested on: Ipomoea hederacea (IPOHE); assay: Herbicidal glasshouse test, post-emergence, IPOHE
Solanum nigrum (SOLNI) [12] = assay: Herbicidal glasshouse test, post-emergence, SOLNI

Compound	PRE Application AMARE, percentage damage (five point scale) [1]	POST Application ECHCG, percentage damage (five point scale) [2]	POST Application AMARE, percentage damage (five point scale) [3]	PRE Application SETFA, percentage damage (five point scale) (Setaria faberi (SETFA) [4])	PRE Application ALOMY, percentage damage (five point scale) [5]	POST Application SETFA, percentage damage (five point scale) (Setaria faberi (SETFA) [6])	POST Application ALOMY, percentage damage (five point scale) [7]	PRE Application IPOHE, percentage damage (five point scale) [8]	PRE Application ECHCG, percentage damage (five point scale) [9]	PRE Application SOLNI, percentage damage (five point scale) (Solanum nigrum (SOLNI) [10])	POST Application IPOHE, percentage damage (five point scale) [11]	POST Application SOLNI, percentage damage (five point scale) (Solanum nigrum (SOLNI) [12])
Cn1nnnc1NC(=O)c1nn(C)c(=O)n(-c2ccc(OC(F)(F)F)c(F)c2)c1=O [Compound 1.029]	5 (5=80-100%)	5 (5=80-100%)	5 (5=80-100%)	5 (5=80-100%)	5 (5=80-100%)	5 (5=80-100%)	5 (5=80-100%)	5 (5=80-100%)	5 (5=80-100%)	5 (5=80-100%)	5 (5=80-100%)	5 (5=80-100%)
Cn1nnnc1NC(=O)c1nn(C)c(=O)n(-c2ccc([N+](=O)[O-])cc2)c1=O [Compound 1.031]	5 (5=80-100%)	5 (5=80-100%)	5 (5=80-100%)	4 (4=60-79%)	3 (3=40-59%)	5 (5=80-100%)	4 (4=60-79%)	4 (4=60-79%)	4 (4=60-79%)	5 (5=80-100%)	2 (2=20-39%)	5 (5=80-100%)
Cn1nnnc1NC(=O)c1nn(C)c(=O)n(-c2cc(C(F)(F)F)cc(C(F)(F)F)c2)c1=O [Compound 1.032]	5 (5=80-100%)	5 (5=80-100%)	5 (5=80-100%)	5 (5=80-100%)	5 (5=80-100%)	4 (4=60-79%)	5 (5=80-100%)	4 (4=60-79%)	5 (5=80-100%)	5 (5=80-100%)	5 (5=80-100%)	5 (5=80-100%)
Cn1nnnc1NC(=O)c1nn(C)c(=O)n(-c2cccc(Br)c2)c1=O [Compound 1.033]	5 (5=80-100%)	5 (5=80-100%)	5 (5=80-100%)	5 (5=80-100%)	5 (5=80-100%)	5 (5=80-100%)	5 (5=80-100%)	5 (5=80-100%)	5 (5=80-100%)	5 (5=80-100%)	5 (5=80-100%)	5 (5=80-100%)
CCOc1cccc(-n2c(=O)c(C(=O)Nc3nnnn3C)nn(C)c2=O)c1 [Compound 1.034]	5 (5=80-100%)	5 (5=80-100%)	5 (5=80-100%)	5 (5=80-100%)	5 (5=80-100%)	5 (5=80-100%)	5 (5=80-100%)	5 (5=80-100%)	5 (5=80-100%)	5 (5=80-100%)	5 (5=80-100%)	5 (5=80-100%)
Cn1nnnc1NC(=O)c1nn(C)c(=O)n(-c2cc(Cl)cc(Cl)c2)c1=O [Compound 1.035]	5 (5=80-100%)	5 (5=80-100%)	5 (5=80-100%)	4 (4=60-79%)	5 (5=80-100%)	5 (5=80-100%)	5 (5=80-100%)	5 (5=80-100%)	5 (5=80-100%)	5 (5=80-100%)	5 (5=80-100%)	5 (5=80-100%)
Cc1cc(-n2c(=O)c(C(=O)Nc3nnnn3C)nn(C)c2=O)ccc1F [Compound 1.037]	5 (5=80-100%)	5 (5=80-100%)	5 (5=80-100%)	5 (5=80-100%)	5 (5=80-100%)	5 (5=80-100%)	5 (5=80-100%)	5 (5=80-100%)	5 (5=80-100%)	5 (5=80-100%)	5 (5=80-100%)	5 (5=80-100%)
Cc1cc(C)cc(-n2c(=O)c(C(=O)Nc3nnnn3C)nn(C)c2=O)c1 [Compound 1.038]	5 (5=80-100%)	5 (5=80-100%)	5 (5=80-100%)	5 (5=80-100%)	5 (5=80-100%)	5 (5=80-100%)	5 (5=80-100%)	5 (5=80-100%)	5 (5=80-100%)	5 (5=80-100%)	5 (5=80-100%)	5 (5=80-100%)
Cn1nnnc1NC(=O)c1nn(C)c(=O)n(-c2ccc(OC(F)(F)F)cc2)c1=O [Compound 1.039]	5 (5=80-100%)	5 (5=80-100%)	5 (5=80-100%)	5 (5=80-100%)	5 (5=80-100%)	5 (5=80-100%)	5 (5=80-100%)	5 (5=80-100%)	5 (5=80-100%)	5 (5=80-100%)	5 (5=80-100%)	5 (5=80-100%)
Cn1nnnc1NC(=O)c1nn(C)c(=O)n(-c2ccc(C(C)(C)C)cc2)c1=O [Compound 1.040]	5 (5=80-100%)	5 (5=80-100%)	5 (5=80-100%)	5 (5=80-100%)	5 (5=80-100%)	5 (5=80-100%)	4 (4=60-79%)	3 (3=40-59%)	5 (5=80-100%)	5 (5=80-100%)	4 (4=60-79%)	5 (5=80-100%)
